Series [1] has as its target T1, 5-HT1A receptor (Homo sapiens, UniProt P08908).
T1 construct: expressed in transfected cells; host or cells: CHO cells, stably transfected
T1 sequence (P08908 1-422): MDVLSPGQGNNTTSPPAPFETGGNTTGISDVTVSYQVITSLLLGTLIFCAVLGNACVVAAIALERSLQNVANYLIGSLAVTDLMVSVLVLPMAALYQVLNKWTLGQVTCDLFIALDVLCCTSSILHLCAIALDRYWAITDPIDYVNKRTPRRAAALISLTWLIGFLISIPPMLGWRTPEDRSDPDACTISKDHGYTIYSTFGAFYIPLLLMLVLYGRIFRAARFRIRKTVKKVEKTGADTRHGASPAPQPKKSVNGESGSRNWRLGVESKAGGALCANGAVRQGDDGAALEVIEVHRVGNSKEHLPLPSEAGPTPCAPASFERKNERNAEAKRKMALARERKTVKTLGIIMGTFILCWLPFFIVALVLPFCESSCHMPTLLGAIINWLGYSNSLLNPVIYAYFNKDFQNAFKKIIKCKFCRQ
The series is described as follows: cell-based. The note with it: CHO, agonist, Ca2+ flux, CHO cells with Gα15, max dose; read-out: 5-HT1A % Act @ Max Dose. Summed up:
(§1)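 FLIPR Tetra fluorescence read-out of calcium flux after compound addition. Receptor-expressing stable lines were used (HEK293 for 2A/2B; CHO with Gα15 for 1A), dye-loaded with Fluo-4 Direct and 2.5 mM final probenecid, 50 min at 37 °C.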

A short description of series [2]: in vitro. The format is in vitro ADME, rat. Particulars: RLM (male Sprague-Dawley) 0.50 mg/mL, NADPH 1 mM, 1 μM compound, pH 7.4, 37° C., 60 min. The source says: RLM Stability Pooled RLM from male Sprague-Dawley rats (Xenotech R1000) were used.
A short description of series [3]: in vitro. Particulars: MLM (male CD-1) 0.50 mg/mL, NADPH 1 mM, 1 μM compound, pH 7.4, 37° C., 60 min. It counts as in vitro ADME, mouse. The source says:
MLM Stability Pooled MLM from male CD-1 mice (BIOIVT M00501) were used.

Series [4] deals with T2, 5-HT2A receptor (Homo sapiens, UniProt P28223). The series is described as follows: cell-based. It counts as cell-based. Set-up: expressed in transfected cells; host or cells: HEK293, stably transfected. Particulars: HEK293, agonist, Ca2+ flux, HEK293, max dose; read-out: 5-HT2A % Act @ Max Dose. Summed up:
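Cells plated and incubated overnight at 37 °C, 5% CO2; Fluo-4 Direct dye with probenecid (final 2.5 mM) added, 50 min at 37 °C; test compounds transferred and Ca2+ signal recorded. HEK293 hosts for 5-HT2A/2B, CHO + Gα15 for 5-HT1A.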
(Calcium flux is commonly read through the fluorescence of an indicator in the cells.)

For series [5], the target named is T3, Alpha1A adrenergic receptor (Homo sapiens, UniProt P35348).
T3 construct: expressed in transfected cells
T3 sequence (P35348 1-466): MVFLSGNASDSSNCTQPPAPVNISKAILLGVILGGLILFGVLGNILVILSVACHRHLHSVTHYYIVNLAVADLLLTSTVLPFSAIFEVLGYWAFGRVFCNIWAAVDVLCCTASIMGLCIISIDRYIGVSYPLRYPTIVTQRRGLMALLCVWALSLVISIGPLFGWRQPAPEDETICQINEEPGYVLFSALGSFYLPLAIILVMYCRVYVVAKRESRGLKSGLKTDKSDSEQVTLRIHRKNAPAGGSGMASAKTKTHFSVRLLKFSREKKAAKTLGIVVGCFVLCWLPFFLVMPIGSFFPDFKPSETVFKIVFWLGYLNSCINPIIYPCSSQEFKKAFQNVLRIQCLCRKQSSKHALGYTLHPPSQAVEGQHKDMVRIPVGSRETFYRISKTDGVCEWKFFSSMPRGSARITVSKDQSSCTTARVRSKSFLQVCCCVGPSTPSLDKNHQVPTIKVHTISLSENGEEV
The series is described as follows: Ca2+ flux functional assay at Alpha1A. The format is cell-based. The note with it: agonist, Ca2+ flux, max dose; read-out: Alpha 1A % Act @ Max Dose. How it is done:
Disclosed compounds were tested for agonist activity at several adrenergic (Alpha1A and Alpha2A) and dopamine (D1 and D2) receptor subtypes using Ca^2+ flux functional assays, with the results summarized in Table 6. Selectivity for the 5-HT2A receptor over these other targets varied depending on the specific target and compound.
Functional Assays at Adrenergic and Dopamine Receptors. Agonist activity at Alpha1A, Alpha2A, D1, and D2 receptors was determined using a FLIPR Ca^2+ flux assay at WuXi AppTec (Hong Kong) Limited according to their standard protocols. Briefly, stably transfected cells expressing the receptor of interest were grown and plated in a 384 well plate and incubated at 37° C. and 5% CO2 overnight. A solution of 250 mM probenecid in 1 mL FLIPR assay buffer was prepared fresh. This was combined with a fluorescent dye (Fluo-4 Direct™) to make a final assay concentration of 2.5 mM. Compounds were diluted 1:3.16 for 10 points and 750 nL was added to a 384 well compound plate using ECHO along with 30 μL assay buffer. The fluorescent dye was then added to the assay plate along with assay buffer to a final volume of 40 μL. The cell plate was incubated for 50 min at 37° C. and 5% CO2 and placed into the FLIPR Tetra along with the compound plate. 10 μL of references and compounds were then transferred from the compound plate into the cell plate and the fluorescent signal was read.

Series [6] is described as follows: in vitro. It counts as in vitro ADME, human. Particulars: HLM 0.50 mg/mL, NADPH 1 mM, 1 μM compound, pH 7.4, 37° C., 60 min.
Series [7] has as its target T4, 5-HT1B receptor (Homo sapiens, UniProt P28222).
T4 construct: expressed in transfected cells
The series is described as follows: cAMP accumulation functional assay at 5-HT1B. The format is cell-based. Particulars: agonist, cAMP accumulation, max dose; read-out: 5-HT1B % Act @ Max Dose. Summed up: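 Agonist activity measured as cAMP accumulation in cells stably transfected with human 5-HT1B. Cells incubated 60 min at RT, then detection reagent added for a further 60 min at RT before plate reading.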
For orientation: Changes in cAMP serve as a functional read-out for many G protein-coupled receptors.

Series [8] addresses T5, 5-HT2B receptor (Homo sapiens, UniProt P41595).
T5 construct: expressed in transfected cells; host or cells: HEK293, stably transfected
The series is described as follows: cell-based. It counts as cell-based. Particulars: HEK293, agonist, Ca2+ flux, HEK293, max dose; read-out: 5-HT2B % Act @ Max Dose. Summed up: as §1

Series [9] has as its target T2, 5-HT2A receptor. The series is described as follows: biochemical. The format is binding. Set-up: expressed in transfected cells; host or cells: HEK293, stably transfected. The note with it: [3H]ketanserin 1 nM; HEK293 stable cell line; 1 h, 25 °C. Summed up:
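Affinity was measured in radioligand binding experiments using [^3H]ketanserin as the labelled ligand, following methods adapted from published procedures.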

A short description of series [10]: in vitro. It counts as in vitro ADME, human. The note with it: for metabolised: human, microsomes, role: substrate, metabolite 83 formed in HLM, read-out: Metabolite Formation (percent formation of metabolite 83). On the procedure: The ability of deuteration in compound 68 to attenuate formation of metabolite 83 compared to the same transformation of the non-deuterated compound 18 was also determined.
HLM Stability. Pooled HLM from adult male and female donors (Corning 452117) were used.

Where two headings read alike, the source gives them in different places.

T2 sequence (P28223 whole entry): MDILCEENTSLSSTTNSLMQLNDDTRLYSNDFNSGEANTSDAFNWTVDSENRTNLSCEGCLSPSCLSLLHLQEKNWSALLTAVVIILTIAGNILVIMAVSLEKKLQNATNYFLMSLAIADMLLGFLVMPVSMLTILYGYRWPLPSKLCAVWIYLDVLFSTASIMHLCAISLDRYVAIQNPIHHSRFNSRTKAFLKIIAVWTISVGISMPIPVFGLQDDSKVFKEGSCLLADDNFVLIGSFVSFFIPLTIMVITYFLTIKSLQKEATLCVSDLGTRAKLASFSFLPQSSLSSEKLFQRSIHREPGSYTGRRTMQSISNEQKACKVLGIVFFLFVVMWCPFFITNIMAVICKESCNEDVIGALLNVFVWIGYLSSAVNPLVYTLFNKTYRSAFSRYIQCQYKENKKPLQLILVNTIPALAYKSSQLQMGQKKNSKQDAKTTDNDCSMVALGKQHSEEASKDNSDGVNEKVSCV
T4 sequence (P28222 whole entry): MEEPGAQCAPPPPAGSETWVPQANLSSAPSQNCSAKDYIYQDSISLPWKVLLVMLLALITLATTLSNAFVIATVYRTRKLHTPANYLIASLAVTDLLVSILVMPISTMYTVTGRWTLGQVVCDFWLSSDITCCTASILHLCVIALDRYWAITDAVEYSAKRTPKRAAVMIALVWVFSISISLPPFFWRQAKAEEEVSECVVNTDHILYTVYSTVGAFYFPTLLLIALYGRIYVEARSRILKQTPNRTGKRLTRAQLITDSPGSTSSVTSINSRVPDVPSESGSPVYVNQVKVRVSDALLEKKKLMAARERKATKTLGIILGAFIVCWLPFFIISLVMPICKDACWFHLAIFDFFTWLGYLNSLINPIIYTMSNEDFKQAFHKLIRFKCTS
T5 sequence (P41595 whole entry): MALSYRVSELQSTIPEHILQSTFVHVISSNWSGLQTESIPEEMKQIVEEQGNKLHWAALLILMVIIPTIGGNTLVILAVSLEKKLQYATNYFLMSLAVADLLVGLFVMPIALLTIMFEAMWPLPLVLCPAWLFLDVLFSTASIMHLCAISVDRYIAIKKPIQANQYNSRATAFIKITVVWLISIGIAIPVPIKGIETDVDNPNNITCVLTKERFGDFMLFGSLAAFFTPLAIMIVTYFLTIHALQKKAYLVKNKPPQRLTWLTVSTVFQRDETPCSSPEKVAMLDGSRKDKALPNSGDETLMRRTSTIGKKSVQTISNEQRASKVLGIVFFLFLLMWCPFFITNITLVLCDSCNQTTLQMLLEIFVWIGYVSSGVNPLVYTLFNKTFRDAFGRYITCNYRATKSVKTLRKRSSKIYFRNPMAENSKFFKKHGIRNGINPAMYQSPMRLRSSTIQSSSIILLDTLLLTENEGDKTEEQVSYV

Regarding `CCN(CC)C(=O)[C@@H]1C=C2c3cccc4[nH]cc(c34)C[C@H]2N(CCC(F)(F)F)C1` [Compound 12, (6aR,9R)—N,N-diethyl-7-(3,3,3-trifluoropropyl)-4,6,6a,7,8,9-hexahydroindolo[4,3-fg]quinoline-9-carboxamide], the Emax in [1] came out at 71.4%; in series [4] it was 78.7%; in series [5], 2.08%; in [7] it was 95.5%; in series [8], 29.6%. Moreover, the “half-life (t1/2)” value is listed as 5.9 min in series [2], 2.1 min in series [3] and 13.5 min in series [6].

`CCN(CC)C(=O)[C@@H]1C=C2c3cccc4[nH]cc(c34)C[C@H]2N(CC2CC2)C1` [Compound 13, (6aR,9R)—N,N-diethyl-7-(cyclopropylmethyl)-4,6,6a,7,8,9-hexahydroindolo[4,3-fg]quinoline-9-carboxamide]: the Emax in [1] came to 83.1%; in series [4], 92.6%; in [5], 80.8%; in series [7], 90.4%; in series [8], 91.8%. Also, the figures for the “half-life (t1/2)” value in [2], in [3] and in series [6] were 27.7 min, 3.7 min and 21.1 min, respectively.

By Ki is commonly meant a measure of affinity in units of concentration, obtained from inhibition or displacement. The molecule `[2H]C([2H])(c1cccc(OC)c1)N1C[C@H](C(=O)N(CC)CC)C=C2c3cccc4[nH]cc(c34)C[C@H]21` [Compound 68, (6aR,9R)—N,N-diethyl-7-((3-methoxyphenyl)methyl-d2)-4,6,6a,7,8,9-hexahydroindolo[4,3-fg]quinoline-9-carboxamide] showed a Ki in series [9] of 3.02 nM. Also, the microsomal CLint in series [2] (rat, microsomes, read-out: Intrinsic clearance (Clint)) was 360 µL/min/mg; in series [3] (mouse, microsomes, read-out: Intrinsic clearance (Clint)), 436 µL/min/mg; in series [6] (human, microsomes, read-out: Intrinsic clearance (Clint)), 130 µL/min/mg. Besides, the half-life in series [2] (rat, microsomes, read-out: half-life (t1/2)) stood at 3.9 min; in series [3] (mouse, microsomes, read-out: half-life (t1/2)), 3.2 min; in series [6] (human, microsomes, read-out: half-life (t1/2)), 10.6 min. Further, in [10] (formation of 83 from 68 compared to formation from 18), the “formation of metabolite 83” value is “substantially attenuated compared to formation of 83 from 18”. For the same molecule, the metabolised in series [10] (T = 0) amounted to 0.1%; in [10] (T = 5), 2.9%; in series [10] (T = 15) it was 4.3%; in series [10] (T = 30), 5.7%; in series [10] (T = 45) it was 5.8%; in series [10] (T = 60) it was 6.2%.
